Laboratory results taken from patent publication US20240425464A1, “Substituted Monohydrazides as Potent Antifungal Agents” (University of Kentucky Research Foundation, priority 2023, published 2024).
Values after ≈ are worked out from the molar mass of the structure shown. Read-outs that look alike come from different tables or passages of the source.

System: C. auris strain AR Bank #390 (L)
Assay: MIC determination by in vitro antifungal assay
Type: cell-based, Candida auris
Procedure: The antifungal agent amphotericin B (AmB) was purchased from VWR (Radnor PA, USA). AmB was dissolved in DMSO at a final concentration of 5 mg/mL and was stored at −20° C., protected from light. Candida albicans American Type Culture Collection (ATCC) 10231 (strain A), C. albicans ATCC 64124 (B), and C. albicans ATCC MYA-2876 (C) were obtained from Utah State University. C. albicans ATCC 90819 (D), C. albicans ATCC MYA-2310 (E), C. albicans ATCC MYA-1237 (F), C. albicans ATCC MYA-1003 (G), Candida glabrata ATCC 2001 (H), Candida krusei ATCC 6258 (I), Candida parapsilosis ATCC 22019 (J), Cryptococcus neoformans ATCC MYA-895 (M), Aspergillus terreus ATCC MYA-3633 (N), and Aspergillus flavus ATCC MYA-3631 (0) were obtained from the American Type Culture Collection (ATCC; Manassas, VA, USA). Aspergillus nidulans ATCC 38163 (P) was obtained from University of Kentucky. Clinically derived Aspergillus fumigatus NRRL 163 (Q), A. fumigatus NRRL 5109 (R), and A. fumigatus NRRL 6113 (S) were obtained from Northern Regional Research Laboratory (NRRL). Candida auris 384 (K), C. auris 390 (L), and fungal strains 381-400 (including 10 C. auris (AR Bank #381-390), 3 Candida duobushaemulonii (AR Bank #391, AR Bank #392, and AR Bank #394), 2 Candida haemulonii (AR Bank #393 and AR Bank #395), 1 Kodameae ohmeri (AR Bank #396), 1 C. krusei (AR Bank #397), 1 Candida lusitaniae (AR Bank #398), and 2 Saccharomyces cerevisiae strains (AR Bank #399 and AR Bank #400)) were part of a larger fungal library from the AR Bank maintained by the Centers for Disease Control and Prevention (CDC; Atlanta, GA, USA). Filamentous fungi and yeasts were cultivated at 35° C. in RPMI 1640 medium (with L-glutamine, without sodium bicarbonate, Sigma-Aldrich, St. Louis, MO) buffered to a pH of 7.0 with 0.165 M morpholinepropanesulfonic acid (MOPS) buffer (Sigma-Aldrich). For cytotoxicity assays, HepG2 and the mouse macrophage cell line J774A.1 were obtained from University of Kentucky. The human embryonic kidney cell line, HEK-293, was bought from the ATCC. Mammalian cells were grown in Dulbecco's Modified Eagle's Medium (DMEM) (from VWR) with 10% fetal bovine serum (FBS) (from VWR) and 1% Pen/Strep (from ATCC). Cell lines were cultured at 37° C. with 5% CO2 and passaged by trypsinization with 0.05% trypsin: 0.53 mM EDTA (from Sigma-Aldrich).
From the actively growing yeast culture, 100 µL were then transferred to 900 μL of RPMI 1640 medium and re-adjusted to achieve OD600 of 0.12 (˜1×10^6 CFU/mL). The cell suspension was further diluted to achieve 1:100 in RPMI 1640 medium.
Finally, the activity of these monohydrazides was explored against […] non-Candida strains: Cryptococcus neoformans ATCC MYA-895 (M), Aspergillus terreus ATCC MYA-3633 (N), Aspergillus flavus ATCC MYA-3631 (O), Aspergillus nidulans ATCC 38163 (P), Aspergillus fumigatus NRRL 163 (Q), A. fumigatus NRRL 5109 (R), and A. fumigatus NRRL 6113 (S) (Tables 1A and 1B). The double dilution method was used with concentrations ranging from 0.06 to 31.3 j·tg mL^−1 for monohydrazides 1a-9j, and the commercially available positive antifungal control amphotericin B (AmB).

[1] = strain L = C. auris AR Bank # 0390 (Tables 1A/1B)
[2] = C. auris AR Bank # 390 (L) (Table 2B)
[3] = Candidozyma auris, strain L = C. auris AR Bank # 0390 (Tables 1A/1B), read-out: MIC
[4] = Candidozyma auris, C. auris AR Bank # 390 (L) (Table 2B), read-out: MIC
[5] = Candidozyma auris, C. auris AR Bank #390 (L), read-out: MIC

Compound	MIC [1] [μg/mL^−1]	MIC [3] [µg/mL]	further results
O=C(NNc1ccc(Cl)cc1)c1ccc(F)cc1F [Compound 1e]	>31.3	–	–
O=C(NNc1ccc(Cl)cc1)c1nc(F)ccc1F [Compound 8e]	7.8	–	MIC [2]: 7.8 μg/mL^−1
COc1ccc(NNC(=O)c2ccc(Br)cn2)cc1 [Compound 4f]	–	1.95 (≈ 6.05 µM)	–
O=C(NNc1ccc(Cl)cc1)c1ccccn1 [Compound 2e]	1.95	–	MIC (C. auris AR Bank #390 (L)): 1.95 μg/mL^−1
O=C(NNc1cc(Cl)cc(Cl)c1)c1ccc(F)cc1F [Compound 1j]	–	> 31.3	MIC [4]: > 31.3 µg/mL
O=C(NNc1cccc(Cl)c1)c1ccccn1 [Compound 2b]	0.98	–	MIC (C. auris AR Bank #390 (L)): 0.49 μg/mL^−1
COc1cccc(NNC(=O)c2ccc(Br)cn2)c1 [Compound 4c]	–	0.98 (≈ 3.04 µM)	–
COc1cccc(NNC(=O)c2ncc(F)cc2F)c1 [Compound 7c]	–	15.6 (≈ 55.9 µM)	–
COc1cccc(NNC(=O)c2cnccn2)c1 [Compound 9c]	–	0.98 (≈ 4.01 µM)	MIC [5]: 0.98 µg/mL (≈ 4.01 µM)
O=C(NNc1cccc(F)c1)c1ccccn1 [Compound 2a]	0.33	–	MIC (C. auris AR Bank #390 (L)): 0.24 μg/mL^−1
COc1ccc(NNC(=O)c2ncc(F)cc2F)cc1 [Compound 7f]	–	0.98 (≈ 3.51 µM)	MIC [4]: 31.3 µg/mL (≈ 112 µM)
C[C@@H]1[C@H](O)[C@@H](C)/C=C/C=C/C=C/C=C/C=C/C=C/C=C/[C@H](O[C@@H]2O[C@H](C)[C@@H](O)[C@H](N)[C@@H]2O)C[C@@H]2O[C@](O)(C[C@@H](O)C[C@@H](O)[C@H](O)CC[C@@H](O)C[C@@H](O)CC(=O)O[C@H]1C)C[C@H](O)[C@H]2C(=O)O [AmB, amphotericin B, reference compound]	1.95	–	MIC (C. auris AR Bank #390 (L)): 1.95 μg/mL^−1; MIC [2]: 1.95 μg/mL^−1
O=C(NNc1cc(F)cc(F)c1)c1ccc(F)cc1F [Compound 1i]	–	15.6 (≈ 54.9 µM)	–
O=C(NNc1ccc(F)cc1)c1ccc(F)cn1 [Compound 3d]	0.98	–	MIC [2]: 3.9 μg/mL^−1
COc1ccc(NNC(=O)c2nc(F)ccc2F)cc1 [Compound 8f]	–	0.98 (≈ 3.51 µM)	MIC [4]: 31.3 µg/mL (≈ 112 µM)
O=C(NNc1ccc(F)cc1F)c1cccc(F)n1 [Compound 5g]	–	3.9 (≈ 14.6 µM)	MIC [4]: 3.9 µg/mL (≈ 14.6 µM)
COc1ccc(NNC(=O)c2ccccn2)cc1 [Compound 2f]	–	0.12 (≈ 0.493 µM)	MIC [5]: 0.12 µg/mL (≈ 0.493 µM)
O=C(NNc1cccc(F)c1)c1ncc(F)cc1F [Compound 7a]	1.95	–	–
O=C(NNc1cccc(F)c1)c1cccc(Br)n1 [Compound 6a]	1.95	–	–
O=C(NNc1cccc(F)c1)c1ccc(F)cn1 [Compound 3a]	0.98	–	–
COc1ccc(NNC(=O)c2ccc(F)cc2F)cc1 [Compound 1f]	–	1.95 (≈ 7.01 µM)	–

Compound	MIC [1] [μg/mL^−1]	MIC [3] [µg/mL]	further results
COc1cccc(NNC(=O)c2ccc(F)cn2)c1 [Compound 3c]	0.98	–	MIC [2]: 3.9 μg/mL^−1
O=C(NNc1cc(F)cc(F)c1)c1ccccn1 [Compound 2i]	–	0.49 (≈ 1.97 µM)	MIC [5]: 0.49 µg/mL (≈ 1.97 µM)
O=C(NNc1ccc(F)cc1F)c1cnccn1 [Compound 9g]	–	0.98 (≈ 3.92 µM)	MIC [5]: 0.98 µg/mL (≈ 3.92 µM)
COc1cccc(NNC(=O)c2ccccn2)c1 [Compound 2c]	0.98	–	MIC (C. auris AR Bank #390 (L)): 0.98 μg/mL^−1
O=C(NNc1cccc(F)c1)c1cccc(F)n1 [Compound 5a]	3.9	–	–
COc1cccc(NNC(=O)c2ccc(F)cc2F)c1 [Compound 1c]	–	1.95 (≈ 7.01 µM)	–
O=C(NNc1ccc(F)cc1F)c1ccc(Br)cn1 [Compound 4g]	–	31.3 (≈ 95.4 µM)	–
COc1ccc(NNC(=O)c2ccc(F)cn2)cc1 [Compound 3f]	0.49	–	–
O=C(NNc1cc(F)ccc1F)c1ccccn1 [Compound 2h]	–	0.98 (≈ 3.93 µM)	MIC [5]: 0.98 µg/mL (≈ 3.93 µM)
O=C(NNc1ccc(Cl)cc1)c1ccc(F)cn1 [Compound 3e]	7.8	–	MIC [2]: 7.8 μg/mL^−1
O=C(NNc1ccc(F)cc1F)c1ccccn1 [Compound 2g]	–	0.12 (≈ 0.482 µM)	MIC [5]: 0.12 µg/mL (≈ 0.482 µM)
O=C(NNc1cc(F)ccc1F)c1ccc(F)cc1F [Compound 1h]	–	15.6 (≈ 54.9 µM)	–
O=C(NNc1cccc(F)c1)c1ccc(F)cc1F [Compound 1a]	0.24	–	–
O=C(NNc1ccc(Cl)cc1)c1cnccn1 [Compound 9e]	3.9	–	MIC (C. auris AR Bank #390 (L)): 3.9 μg/mL^−1
O=C(NNc1cccc(F)c1)c1nc(F)ccc1F [Compound 8a]	1.95	–	–
O=C(NNc1ccc(F)cc1)c1cnccn1 [Compound 9d]	–	0.98 (≈ 4.22 µM)	–
COc1ccc(NNC(=O)c2cccc(Br)n2)cc1 [Compound 6f]	–	1.95 (≈ 6.05 µM)	–
O=C(NNc1ccc(F)cc1F)c1ncc(F)cc1F [Compound 7g]	–	1.95 (≈ 6.84 µM)	MIC [4]: 7.8 µg/mL (≈ 27.3 µM)
O=C(NNc1ccc(F)cc1)c1cccc(F)n1 [Compound 5d]	–	0.98 (≈ 3.93 µM)	MIC [4]: 1.95 µg/mL (≈ 7.82 µM)
COc1ccc(NNC(=O)c2cccc(F)n2)cc1 [Compound 5f]	–	1.95 (≈ 7.46 µM)	–
O=C(NNc1ccc(F)cc1)c1ccccn1 [Compound 2d]	–	0.98 (≈ 4.24 µM)	MIC [5]: 0.98 µg/mL (≈ 4.24 µM)

Compound	MIC [1] [μg/mL^−1]	MIC [3] [µg/mL]	further results
COc1cccc(NNC(=O)c2nc(F)ccc2F)c1 [Compound 8c]	–	15.6 (≈ 55.9 µM)	–
O=C(NNc1cccc(Cl)c1)c1ccc(F)cc1F [Compound 1b]	–	7.8 (≈ 27.6 µM)	MIC [4]: 7.8 µg/mL (≈ 27.6 µM)
O=C(NNc1ccc(F)cc1)c1cccc(Br)n1 [Compound 6d]	–	0.98 (≈ 3.16 µM)	MIC [4]: 3.9 µg/mL (≈ 12.6 µM)
O=C(NNc1cccc(F)c1)c1cnccn1 [Compound 9a]	0.98	–	–
O=C(NNc1cc(F)cc(F)c1)c1cnccn1 [Compound 9i]	–	1.95 (≈ 7.79 µM)	–
O=C(NNc1ccc(F)cc1)c1ncc(F)cc1F [Compound 7d]	–	0.98 (≈ 3.67 µM)	MIC [4]: 3.9 µg/mL (≈ 14.6 µM)
O=C(NNc1ccc(F)cc1)c1ccc(Br)cn1 [Compound 4d]	–	3.9 (≈ 12.6 µM)	MIC [4]: 7.8 µg/mL (≈ 25.2 µM)
O=C(NNc1ccc(Cl)cc1)c1cccc(F)n1 [Compound 5e]	7.8	–	MIC [2]: 7.8 μg/mL^−1
O=C(NNc1cc(Cl)cc(Cl)c1)c1ccccn1 [Compound 2j]	–	1.95 (≈ 6.91 µM)	MIC [5]: 3.9 µg/mL (≈ 13.8 µM)
O=C(NNc1ccc(Cl)cc1)c1ncc(F)cc1F [Compound 7e]	7.8	–	MIC [2]: 7.8 μg/mL^−1
O=C(NNc1cccc(F)c1)c1ccc(Br)cn1 [Compound 4a]	1.95	–	–
O=C(NNc1ccc(F)cc1F)c1ccc(F)cn1 [Compound 3g]	–	3.9 (≈ 14.6 µM)	MIC [4]: 3.9 µg/mL (≈ 14.6 µM)
O=C(NNc1cc(Cl)cc(Cl)c1)c1cnccn1 [Compound 9j]	–	7.8 (≈ 27.6 µM)	–
O=C(NNc1ccc(F)cc1)c1ccc(F)cc1F [Compound 1d]	–	1.95 (≈ 7.32 µM)	–
O=C(NNc1ccc(F)cc1F)c1ccc(F)cc1F [Compound 1g]	–	7.8 (≈ 27.4 µM)	–
O=C(NNc1cc(F)ccc1F)c1cnccn1 [Compound 9h]	–	1.95 (≈ 7.79 µM)	–
O=C(NNc1ccc(F)cc1)c1nc(F)ccc1F [Compound 8d]	–	0.98 (≈ 3.67 µM)	MIC [4]: 1.95 µg/mL (≈ 7.3 µM)
COc1ccc(NNC(=O)c2cnccn2)cc1 [Compound 9f]	–	0.49 (≈ 2.01 µM)	MIC [5]: 0.98 µg/mL (≈ 4.01 µM)
O=C(NNc1cccc(Cl)c1)c1cnccn1 [Compound 9b]	–	0.98 (≈ 3.94 µM)	MIC [5]: 0.49 µg/mL (≈ 1.97 µM)
O=C(NNc1ccc(F)cc1F)c1nc(F)ccc1F [Compound 8g]	–	1.95 (≈ 6.84 µM)	MIC [4]: 31.3 µg/mL (≈ 110 µM)
